Results on eleven compounds are retold here after patent publication US10526309B2, “Pan-TAM inhibitors and Mer/Axl dual inhibitors” (The University of North Carolina at Chapel Hill, priority 2015, dated 2020).

Molecules are shown by their SMILES.

The target in the first experiment is T1, Mer (Homo sapiens, UniProt Q12866).
T1 sequence (Q12866 21-999): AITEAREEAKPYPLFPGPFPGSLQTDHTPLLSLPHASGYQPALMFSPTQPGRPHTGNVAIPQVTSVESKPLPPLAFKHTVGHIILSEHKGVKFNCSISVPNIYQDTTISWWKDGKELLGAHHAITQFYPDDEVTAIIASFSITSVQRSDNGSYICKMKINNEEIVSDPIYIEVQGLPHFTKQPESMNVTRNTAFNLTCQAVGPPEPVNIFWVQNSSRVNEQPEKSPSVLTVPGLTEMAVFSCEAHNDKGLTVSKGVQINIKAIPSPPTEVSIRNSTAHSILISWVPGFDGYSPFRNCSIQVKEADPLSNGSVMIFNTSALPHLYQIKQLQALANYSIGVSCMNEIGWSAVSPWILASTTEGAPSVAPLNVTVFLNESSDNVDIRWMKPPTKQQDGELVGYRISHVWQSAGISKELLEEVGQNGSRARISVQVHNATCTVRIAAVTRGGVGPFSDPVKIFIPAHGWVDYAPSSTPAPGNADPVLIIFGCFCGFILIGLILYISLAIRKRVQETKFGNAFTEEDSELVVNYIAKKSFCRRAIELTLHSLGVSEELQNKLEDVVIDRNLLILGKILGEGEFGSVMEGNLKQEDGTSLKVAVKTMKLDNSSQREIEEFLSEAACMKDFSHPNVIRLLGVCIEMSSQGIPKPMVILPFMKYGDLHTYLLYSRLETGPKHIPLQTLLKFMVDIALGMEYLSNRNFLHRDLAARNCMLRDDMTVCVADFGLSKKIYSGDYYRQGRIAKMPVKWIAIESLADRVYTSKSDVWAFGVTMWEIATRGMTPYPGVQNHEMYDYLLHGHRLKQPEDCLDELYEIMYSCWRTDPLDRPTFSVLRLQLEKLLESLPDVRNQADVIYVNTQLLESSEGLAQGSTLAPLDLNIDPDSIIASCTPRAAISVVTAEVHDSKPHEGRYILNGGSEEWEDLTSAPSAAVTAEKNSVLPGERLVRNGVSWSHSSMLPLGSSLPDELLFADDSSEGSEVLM
The experiment in a line: Mer kinase inhibition IC50. Particulars: Table 2; read-out: Mer IC50. It counts as biochemical.
For orientation: IC50 means the concentration that gives 50% inhibition. As for `CN1CCN(Cc2ccc(-c3ccc(Nc4ncc(-c5ccccn5)c(N[C@H]5CC[C@H](O)CC5)n4)cc3)cc2)CC1` [UNC4437A], the IC50 was in the range of 0.1 to 1 µM.

Staying with this experiment, now noted: Table 3; read-out: Mer IC50.
Turning to `CN1CCN(Cc2ccc(-c3cnc(Nc4ccc(C#Cc5cc(C6OCCO6)ccn5)cc4)nc3N[C@H]3CC[C@H](O)CC3)cc2)CC1` [UNC3437A], the concentration for half-maximal inhibition (IC50) was 0.01 to 0.1 µM.
As to `NS(=O)(=O)c1ccc(-c2cnc(Nc3ccc(C#Cc4cc(C(=O)NC5CC5)ccn4)cc3)nc2N[C@H]2CC[C@H](O)CC2)nc1` [UNC3457A], the half-inhibitory concentration (IC50) was in the range of 0.01 to 0.1 µM.
Same read-out and setting: to `CCNC(=O)c1ccnc(C#Cc2ccc(Nc3ncc(-c4ccccn4)c(N[C@H]4CC[C@H](O)CC4)n3)cc2)c1` [UNC3458A] belongs below 0.01 µM; to `CN(C)C(=O)c1ccnc(C#Cc2ccc(Nc3ncc(-c4ccccn4)c(N[C@H]4CC[C@H](O)CC4)n3)cc2)c1` [UNC3459A], 0.01 to 0.1 µM; to `O=S(=O)(c1ccc(-c2cnc(Nc3ccc(C#Cc4cc(C5OCCO5)ccn4)cc3)nc2N[C@H]2CC[C@H](O)CC2)nc1)N1CCOCC1` [UNC3619A], below 0.01 µM.
Still for that read-out and setting: then `CN1CCN(Cc2ccc(-c3cnc(Nc4ccc(C#Cc5cc(NC(=O)C6CC6)ccn5)cc4)nc3N[C@H]3CC[C@H](O)CC3)cc2)CC1` [UNC3622A], with below 0.01 µM; and `CN1CCN(Cc2ccc(-c3cnc(Nc4ccc(C#Cc5cc(NC(=O)c6ccccc6)ccn5)cc4)nc3N[C@H]3CC[C@H](O)CC3)cc2)CC1` [UNC3868A], with below 0.01 µM; and `CN1CCN(Cc2ccc(-c3cnc(Nc4ccc(C#Cc5cc(N)ccn5)cc4)nc3N[C@H]3CC[C@H](O)CC3)cc2)CC1` [UNC3869A], with 0.01 to 0.1 µM.
As to `CC(C)C(=O)Nc1ccnc(C#Cc2ccc(Nc3ncc(-c4ccc(CN5CCN(C)CC5)cc4)c(N[C@H]4CC[C@H](O)CC4)n3)cc2)c1` [UNC3870A], the IC50 was below 0.01 µM.
On to `CN1CCN(Cc2ccc(-c3cnc(Nc4ccc(C#Cc5cc(NC(=O)C6CCC6)ccn5)cc4)nc3N[C@H]3CC[C@H](O)CC3)cc2)CC1` [UNC3871A], for which the IC50 is below 0.01 µM.

For another experiment, the target named is T2, Axl (Homo sapiens, UniProt P30530).
T2 sequence (P30530 26-894): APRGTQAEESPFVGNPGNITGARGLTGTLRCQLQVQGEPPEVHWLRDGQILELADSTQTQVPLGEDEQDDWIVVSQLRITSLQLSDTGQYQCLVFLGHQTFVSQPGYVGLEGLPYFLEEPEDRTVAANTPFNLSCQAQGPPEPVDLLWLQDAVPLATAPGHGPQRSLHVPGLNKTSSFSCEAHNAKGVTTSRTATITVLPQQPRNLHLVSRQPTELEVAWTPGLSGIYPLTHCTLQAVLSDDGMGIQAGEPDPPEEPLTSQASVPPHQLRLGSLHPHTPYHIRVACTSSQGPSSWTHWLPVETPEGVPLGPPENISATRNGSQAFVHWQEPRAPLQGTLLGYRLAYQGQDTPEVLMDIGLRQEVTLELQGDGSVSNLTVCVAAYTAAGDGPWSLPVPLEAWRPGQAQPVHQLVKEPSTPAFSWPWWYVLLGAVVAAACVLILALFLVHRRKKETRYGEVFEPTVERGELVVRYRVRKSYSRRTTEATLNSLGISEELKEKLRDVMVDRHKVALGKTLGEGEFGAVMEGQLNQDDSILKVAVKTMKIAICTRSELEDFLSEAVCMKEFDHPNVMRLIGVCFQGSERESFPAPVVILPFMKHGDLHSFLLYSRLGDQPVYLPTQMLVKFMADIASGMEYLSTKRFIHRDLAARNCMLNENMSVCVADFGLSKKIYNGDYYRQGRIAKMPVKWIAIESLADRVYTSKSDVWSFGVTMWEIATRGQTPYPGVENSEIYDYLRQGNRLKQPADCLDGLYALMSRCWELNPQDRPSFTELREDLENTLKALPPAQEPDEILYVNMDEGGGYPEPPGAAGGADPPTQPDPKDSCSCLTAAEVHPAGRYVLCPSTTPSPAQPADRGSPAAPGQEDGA
The experiment in a line: Axl kinase inhibition IC50. The experiment is classed as biochemical. The note with it: Table 3.
`CN1CCN(Cc2ccc(-c3cnc(Nc4ccc(C#Cc5cc(C6OCCO6)ccn5)cc4)nc3N[C@H]3CC[C@H](O)CC3)cc2)CC1` [UNC3437A] returned an IC50 of 0.1 to 1 µM.
The same measure, in the same setting: then `NS(=O)(=O)c1ccc(-c2cnc(Nc3ccc(C#Cc4cc(C(=O)NC5CC5)ccn4)cc3)nc2N[C@H]2CC[C@H](O)CC2)nc1` [UNC3457A], with 0.01 to 0.1 µM.
`CCNC(=O)c1ccnc(C#Cc2ccc(Nc3ncc(-c4ccccn4)c(N[C@H]4CC[C@H](O)CC4)n3)cc2)c1` [UNC3458A] registered an IC50 below 0.01 µM.
Compound `CN(C)C(=O)c1ccnc(C#Cc2ccc(Nc3ncc(-c4ccccn4)c(N[C@H]4CC[C@H](O)CC4)n3)cc2)c1` [UNC3459A] displayed an IC50 of 1 to 30 µM.
`O=S(=O)(c1ccc(-c2cnc(Nc3ccc(C#Cc4cc(C5OCCO5)ccn4)cc3)nc2N[C@H]2CC[C@H](O)CC2)nc1)N1CCOCC1` [UNC3619A] yielded an IC50 of 0.1 to 1 µM.
With `CN1CCN(Cc2ccc(-c3cnc(Nc4ccc(C#Cc5cc(NC(=O)C6CC6)ccn5)cc4)nc3N[C@H]3CC[C@H](O)CC3)cc2)CC1` [UNC3622A], the half-maximal inhibitory concentration (IC50) is below 0.01 µM.
On the same count and under the same terms, then `CN1CCN(Cc2ccc(-c3cnc(Nc4ccc(C#Cc5cc(NC(=O)c6ccccc6)ccn5)cc4)nc3N[C@H]3CC[C@H](O)CC3)cc2)CC1` [UNC3868A], with 0.01 to 0.1 µM.
Still for that read-out and setting: to `CN1CCN(Cc2ccc(-c3cnc(Nc4ccc(C#Cc5cc(N)ccn5)cc4)nc3N[C@H]3CC[C@H](O)CC3)cc2)CC1` [UNC3869A] belongs 1 to 30 µM; to `CC(C)C(=O)Nc1ccnc(C#Cc2ccc(Nc3ncc(-c4ccc(CN5CCN(C)CC5)cc4)c(N[C@H]4CC[C@H](O)CC4)n3)cc2)c1` [UNC3870A], below 0.01 µM; to `CN1CCN(Cc2ccc(-c3cnc(Nc4ccc(C#Cc5cc(NC(=O)C6CCC6)ccn5)cc4)nc3N[C@H]3CC[C@H](O)CC3)cc2)CC1` [UNC3871A], 0.01 to 0.1 µM.

A further experiment concerns the target T3, Tyro3 (Homo sapiens, UniProt Q06418).
T3 sequence (Q06418 41-890): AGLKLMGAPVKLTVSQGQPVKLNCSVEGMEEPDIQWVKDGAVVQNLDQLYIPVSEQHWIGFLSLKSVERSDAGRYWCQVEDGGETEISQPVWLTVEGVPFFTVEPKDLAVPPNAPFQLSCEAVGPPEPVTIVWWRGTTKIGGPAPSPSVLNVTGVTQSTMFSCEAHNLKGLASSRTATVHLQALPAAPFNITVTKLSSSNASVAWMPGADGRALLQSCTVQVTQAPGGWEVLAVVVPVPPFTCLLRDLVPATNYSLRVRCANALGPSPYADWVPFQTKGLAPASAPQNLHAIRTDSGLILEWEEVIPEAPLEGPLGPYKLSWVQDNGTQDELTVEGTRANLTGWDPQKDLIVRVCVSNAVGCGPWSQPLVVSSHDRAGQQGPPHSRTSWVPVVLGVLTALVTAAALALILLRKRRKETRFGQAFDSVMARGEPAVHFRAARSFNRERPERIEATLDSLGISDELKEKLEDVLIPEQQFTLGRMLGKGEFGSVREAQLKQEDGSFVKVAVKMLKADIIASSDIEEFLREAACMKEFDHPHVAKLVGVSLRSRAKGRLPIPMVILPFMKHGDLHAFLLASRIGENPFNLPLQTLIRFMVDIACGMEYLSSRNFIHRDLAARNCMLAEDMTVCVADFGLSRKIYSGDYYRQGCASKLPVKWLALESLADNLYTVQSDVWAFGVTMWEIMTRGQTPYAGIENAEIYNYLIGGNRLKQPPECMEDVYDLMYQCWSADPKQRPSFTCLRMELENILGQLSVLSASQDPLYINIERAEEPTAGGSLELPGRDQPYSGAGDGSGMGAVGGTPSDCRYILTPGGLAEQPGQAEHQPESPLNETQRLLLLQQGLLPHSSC
As to the kind of experiment: Tyro3 kinase inhibition IC50. The experiment is classed as biochemical. The note with it: Table 3; read-out: Tyro3 IC50.
On to `NS(=O)(=O)c1ccc(-c2cnc(Nc3ccc(C#Cc4cc(C(=O)NC5CC5)ccn4)cc3)nc2N[C@H]2CC[C@H](O)CC2)nc1` [UNC3457A], for which the half-maximal inhibitory concentration (IC50) was in the range of 0.1 to 1 µM.
The same measure, in the same setting: then `CCNC(=O)c1ccnc(C#Cc2ccc(Nc3ncc(-c4ccccn4)c(N[C@H]4CC[C@H](O)CC4)n3)cc2)c1` [UNC3458A], with below 0.01 µM; and `CN(C)C(=O)c1ccnc(C#Cc2ccc(Nc3ncc(-c4ccccn4)c(N[C@H]4CC[C@H](O)CC4)n3)cc2)c1` [UNC3459A], with below 0.01 µM; and `O=S(=O)(c1ccc(-c2cnc(Nc3ccc(C#Cc4cc(C5OCCO5)ccn4)cc3)nc2N[C@H]2CC[C@H](O)CC2)nc1)N1CCOCC1` [UNC3619A], with below 0.01 µM.
The same measure, in the same setting: then `CN1CCN(Cc2ccc(-c3cnc(Nc4ccc(C#Cc5cc(NC(=O)C6CC6)ccn5)cc4)nc3N[C@H]3CC[C@H](O)CC3)cc2)CC1` [UNC3622A], with below 0.01 µM; and `CN1CCN(Cc2ccc(-c3cnc(Nc4ccc(C#Cc5cc(NC(=O)c6ccccc6)ccn5)cc4)nc3N[C@H]3CC[C@H](O)CC3)cc2)CC1` [UNC3868A], with 0.01 to 0.1 µM.
As for `CN1CCN(Cc2ccc(-c3cnc(Nc4ccc(C#Cc5cc(N)ccn5)cc4)nc3N[C@H]3CC[C@H](O)CC3)cc2)CC1` [UNC3869A], the half-maximal inhibitory concentration (IC50) was 0.1 to 1 µM.
Consider `CC(C)C(=O)Nc1ccnc(C#Cc2ccc(Nc3ncc(-c4ccc(CN5CCN(C)CC5)cc4)c(N[C@H]4CC[C@H](O)CC4)n3)cc2)c1` [UNC3870A], for which the concentration for half-maximal inhibition (IC50) was below 0.01 µM.
The same measure, in the same setting: then `CN1CCN(Cc2ccc(-c3cnc(Nc4ccc(C#Cc5cc(NC(=O)C6CCC6)ccn5)cc4)nc3N[C@H]3CC[C@H](O)CC3)cc2)CC1` [UNC3871A], with below 0.01 µM.
